According to the Kinase Knowledgebase extract (Sharma et al. 2016):

Molecular target: MAPK14 (UniProt Q16539)
Assay: Inhibition of MAPK14 Kinase Activity

MAPK14, sequence (Q16539 whole entry, looked up): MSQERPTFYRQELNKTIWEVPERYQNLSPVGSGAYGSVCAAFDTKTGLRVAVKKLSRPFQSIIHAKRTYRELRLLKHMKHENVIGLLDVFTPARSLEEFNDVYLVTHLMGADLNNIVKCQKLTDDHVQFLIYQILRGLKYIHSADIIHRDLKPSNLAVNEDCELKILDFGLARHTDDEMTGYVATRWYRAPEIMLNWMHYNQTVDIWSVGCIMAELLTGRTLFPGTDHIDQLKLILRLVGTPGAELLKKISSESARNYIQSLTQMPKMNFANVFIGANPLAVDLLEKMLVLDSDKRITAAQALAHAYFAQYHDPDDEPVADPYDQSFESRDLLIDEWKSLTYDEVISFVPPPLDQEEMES

IC50 [µM]	SMILES
< 10	Cc1ccc(C(=O)NC2CC2)cc1-c1ccc(C(=O)NCC(C)(C)C)cc1OCCCNCCO
< 10	COc1ccc(CNC(=O)c2ccc(-c3cc(C(=O)NC4CC4)cc(F)c3C)c(O)c2)cc1
< 10	Cc1ccc(C(=O)NC2CC2)cc1-c1ccc(C(=O)NCC(C)(C)C)cc1OCCCN1CCCC1
< 10	Cc1ccc(C(=O)NC2CC2)cc1-c1ccc(C(=O)NCC(C)(C)C)cc1OCCCNC(C)C
< 10	Cc1c(F)cc(C(=O)NC2CC2)cc1-c1ccc(C(=O)NCC(C)(C)C)cc1OCCCc1nnco1
< 10	CCC(=O)Nc1cc(C(=O)NCC(C)(C)C)ccc1-c1cc(C(=O)NC2CC2)ccc1C
< 10	COc1ccc(CNC(=O)c2ccc(-c3cc(C(=O)NC4CC4)cc(F)c3C)c(OC)c2)cc1
< 10	Cc1c(F)cc(C(=O)NC2CC2)cc1-c1ccc(C(=O)NCC(C)(C)C)cc1OCCCC(N)=O
< 10	Cc1c(F)cc(C(=O)NC2CC2)cc1-c1ccc(C(=O)NCC(C)(C)C)cc1OCCCCO
< 10	Cc1c(F)cc(C(=O)NC2CC2)cc1-c1ccc(C(=O)NCC(C)(C)C)cc1OCCNS(C)(=O)=O
< 10	Cc1c(F)cc(C(=O)NC2CC2)cc1-c1ccc(C(=O)NCC(C)(C)C)cc1OCCCC(=O)N(C)C
< 10	Cc1c(F)cc(C(=O)NC2CC2)cc1-c1ccc(C(=O)NCC2CC2)cc1OCCN(C)C
< 10	COc1cc(C(=O)N[C@H](C)C(C)C)ccc1-c1cc(C(=O)NC2CC2)cc(F)c1C
< 10	CCCOc1cc(C(=O)NCC(C)(C)C)ccc1-c1cc(C(=O)NC2CC2)cc(F)c1C
< 10	Cc1c(F)cc(C(=O)NC2CC2)cc1-c1ccc(C(=O)NCC(C)(C)C)cc1OCC(=O)N1CCOCC1
< 10	COc1cc(C(=O)N[C@H](C)C(C)(C)C)ccc1-c1cc(C(=O)NC2CC2)cc(F)c1C
< 10	Cc1c(F)cc(C(=O)NC2CC2)cc1-c1ccc(C(=O)NCC(C)(C)C)cc1OCCCC(=O)O
< 10	Cc1c(F)cc(C(=O)NC2CC2)cc1-c1ccc(C(=O)NCC(C)(C)C)cc1OCCCC(=O)N1CCOCC1
< 10	Cc1c(F)cc(C(=O)NC2CC2)cc1-c1ccc(C(=O)NCC(C)(C)C)cc1OCCCC(=O)N1CCCC1
< 10	COc1cc(C(=O)NCC2CC2)ccc1-c1cc(C(=O)NC2CC2)cc(F)c1C
< 10	COCOc1cc(C(=O)NCC2CC2)ccc1-c1cc(C(=O)NC2CC2)cc(F)c1C
< 10	CC(=O)Nc1cc(C(=O)NCC(C)(C)C)ccc1-c1cc(C(=O)NC2CC2)ccc1C
< 10	COCOc1cc(C(=O)NCc2ccc(OC)cc2)ccc1-c1cc(C(=O)NC2CC2)cc(F)c1C
< 10	COCOc1cc(C(=O)NCC(C)C)ccc1-c1cc(C(=O)NC2CC2)cc(F)c1C

IC50 [µM]	SMILES
< 10	Cc1ccc(C(=O)NC2CC2)cc1-c1ccc(C(=O)NCC(C)(C)C)cc1OCCCN(C)C(C)C
< 10	CCNC(=O)Nc1cc(C(=O)NCC(C)(C)C)ccc1-c1cc(C(=O)NC2CC2)ccc1C
< 10	Cc1c(F)cc(C(=O)NC2CC2)cc1-c1ccc(C(=O)NCC(C)C)cc1O
< 10	Cc1c(F)cc(C(=O)NC2CC2)cc1-c1ccc(C(=O)NCC2CC2)cc1O
< 10	COCOc1cc(C(=O)N[C@H](C)C(C)C)ccc1-c1cc(C(=O)NC2CC2)cc(F)c1C
< 10	COc1cc(C(=O)NCC(C)(C)C)ccc1-c1cc(C(=O)NC2CC2)cc(F)c1C
< 10	Cc1c(F)cc(C(=O)NC2CC2)cc1-c1ccc(C(=O)NCC(C)(C)C)cc1CNCC(C)(C)C
< 10	Cc1c(F)cc(C(=O)NC2CC2)cc1-c1ccc(C(=O)NCC(C)(C)C)cc1OCCN1CCOCC1
< 10	CCN(CC)CCCOc1cc(C(=O)NCC(C)(C)C)ccc1-c1cc(C(=O)NC2CC2)ccc1C
< 10	Cc1ccc(C(=O)NC2CC2)cc1-c1ccc(C(=O)NCC(C)(C)C)cc1OCC(O)CO (stereo not drawn)
< 10	COCOc1cc(C(=O)NCC(C)(C)C)ccc1-c1cc(C(=O)NC2CC2)cc(F)c1C
< 10	Cc1ccc(C(=O)NC2CC2)cc1-c1ccc(C(=O)NCC(C)(C)C)cc1N
< 10	COCOc1cc(C(=O)N[C@H](C)C(C)(C)C)ccc1-c1cc(C(=O)NC2CC2)cc(F)c1C
< 10	COc1cc(C(=O)NCC(C)C)ccc1-c1cc(C(=O)NC2CC2)cc(F)c1C
< 10	Cc1c(F)cc(C(=O)NC2CC2)cc1-c1ccc(C(=O)N[C@H](C)C(C)(C)C)cc1O
< 10	Cc1ccc(C(=O)NC2CC2)cc1-c1ccc(C(=O)NCC(C)(C)C)cc1NS(C)(=O)=O
< 10	Cc1ccc(C(=O)NC2CC2)cc1-c1ccc(C(=O)NCC(C)(C)C)cc1OCCCN1CCOCC1
< 10	CCNC(=O)CCCOc1cc(C(=O)NCC(C)(C)C)ccc1-c1cc(C(=O)NC2CC2)cc(F)c1C
< 10	Cc1ccc(CNC(=O)c2ccc(-c3cc(C(=O)NC4CC4)cc(F)c3C)c(O)c2)cc1
< 10	CNC(=O)CCCOc1cc(C(=O)NCC(C)(C)C)ccc1-c1cc(C(=O)NC2CC2)cc(F)c1C
< 10	Cc1c(F)cc(C(=O)NC2CC2)cc1-c1ccc(C(=O)NCC(C)(C)C)cc1O
< 10	Cc1c(F)cc(C(=O)NC2CC2)cc1-c1ccc(C(=O)NCC(C)(C)C)cc1OCCCN(C)C
< 10	Cc1c(F)cc(C(=O)NC2CC2)cc1-c1ccc(C(=O)NCC(C)(C)C)cc1CO
< 10	Cc1c(F)cc(C(=O)NC2CC2)cc1-c1ccc(C(=O)N[C@H](C)C(C)C)cc1O
